# According to patent publication US20240109843A1, “BENZALDEHYDE COMPOUNDS WITH DIRECT POLYMER DESTABILIZING EFFECTS TO TREAT SICKLE CELL DISEASE” (VIRGINIA COMMONWEALTH UNIVERSITY, priority 2018, published 2024):
# Columns and labels:
# [1] = test system: RBCs from donors with homozygous SCD; assay: Oxygen-independent sickle inhibition in SS blood suspensions under anoxia (100% nitrogen); type: cell-based, human; conditions: anoxia
# Procedure, shortened: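 After room-air re-oxygenation for 15 min to reverse sickling, SS blood suspensions were held under 100% nitrogen for 1 h (screening) or up to 2.5 h (time course), with aliquots fixed at set intervals. Sickled versus non-sickled cells were counted by bright-field microscopy to calculate sickle inhibition.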
# [2] = ADME / bioavailability assessment; conditions: in vivo
# [3] = test system: sickle red blood cells; assay: Antisickling study with human sickle blood under 2.5% oxygen; type: cell-based; conditions: Homo sapiens, Erythrocyte, sickle RBCs, 2.5% oxygen, read-out: sickling inhibition
# Description: Blood suspensions from subjects with homozygous SCD (resuspended in Hemox™ buffer to a final hematocrit 20%) were incubated under air in the absence or presence of the compounds (0.5 mM, 1 mM and 2 mM) at 37° C. for 1 h to ensure that binding had attained equilibrium. The suspensions were then incubated under hypoxic conditions (2.5% oxygen/97.5% nitrogen) at 37° C. for 1 h. Aliquot samples were fixed with 2% glutaraldehyde solution without exposure to air, and then subjected to microscopic morphological analysis of bright field images (at 40× magnification) of single layer cells on an Olympus BX40 microscope fitted with an Infinity Lite B camera (Olympus), and the coupled Image Capture software. The residual samples were washed in phosphate-buffer saline, and hemolyzed in hypotonic lysis buffer for subsequent Hb-modification and oxygen equilibrium analyses.
# The studies described above were conducted using normal whole blood. Next, we investigated whether the improvement in Hb oxygen affinity and the compounds sustained activity also translated to similar effects in SS blood from SCD patients. […] At 1 mM, PP8 and PP9 inhibited nearly 100% of sickling, while PP2, PP6, PP14 inhibited sickling by more than 70%. […] It is clear that the modifications of the present compounds has led to significant improvement in antisickling activity.
# [4] = target: T1, intracellular Hb (Mus musculus, UniProt P01942); assay: In vivo modification of intracellular Hb in wild-type mice; parameters: species or system C57BL/6 mice; conditions: IP 150 mg/kg, 30% PEG300, 6 h
# T1 construct: from tissue; host or cells: blood (red cell lysates) of dosed C57BL/6 mice
# T1 sequence (P01942 2-142 limits assumed): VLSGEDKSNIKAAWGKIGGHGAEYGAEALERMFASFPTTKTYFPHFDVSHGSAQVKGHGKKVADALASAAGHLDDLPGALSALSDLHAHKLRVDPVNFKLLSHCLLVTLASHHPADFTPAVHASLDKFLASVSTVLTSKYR
# T1 sequence (P02088 2-147 partner limits assumed): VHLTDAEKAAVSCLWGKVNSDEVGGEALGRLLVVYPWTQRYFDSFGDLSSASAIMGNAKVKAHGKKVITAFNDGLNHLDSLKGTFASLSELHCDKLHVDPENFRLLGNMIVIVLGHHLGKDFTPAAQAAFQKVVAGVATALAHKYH
# Description: We tested in vivo pharmacologic (pharmacodynamics) effects of select PP compounds in C57BL/6 mice. The animals were treated with a single intraperitoneal (IP) (150 mg/kg body weight) dose of PP6, PP10, PP14, and TD7, which were formulated with 30% PEG300. Blood samples were obtained prior to treatment (0) and 1, 3 and 6 h post-treatment, via submandibular bleeding, and subjected to hemolysis using standard methods. Clarified lysates, free of cell debris and red blood cell ghosts were analyzed by cation-exchange HPLC to determine the levels of drug-modified hemoglobin (adducts); and to conduct oxygen equilibrium studies to determine degrees of shift in p50 values using methodologies described earlier for in vitro studies on human samples. In a subsequent follow-up experiment, a new excipient obtained from Catalent Pharma Solutions was also used to formulate PP14 and used for a single intraperitoneal (IP) and oral (150 mg/kg body weight) dose. Blood samples were obtained prior to treatment (0) and 1, 3 or 5 h post-treatment, via submandibular bleeding, and used to determine the levels of drug-modified hemoglobin (adducts); and to conduct oxygen equilibrium studies to determine degrees of shift in p50 values as described above.
# [5] = target: T2, Hb (Homo sapiens, UniProt P69905); assay: Oxygen equilibrium curve (OEC) studies with normal whole blood; type: cell-based; parameters: Hemoglobin modification, studies using non-sickling AA blood; from tissue; host or cells: non-sickling (AA) human blood, red blood cells; conditions: normal whole blood, 0.5, 1, 2 mM
# Description: Oxygen equilibrium curve (OEC) studies to determine the effect of the compounds on Hb affinity for oxygen were conducted following standard procedure. Whole blood (30% hematocrit) was incubated in the absence or presence of compounds (0.5 mM, 1.0 mM and 2.0 mM) solubilized in DMSO. […] After equilibration, the sample was removed via syringe and aspirated into an ABL 700 series table top automated blood gas analyzer (Radiometer America, Inc., Westlake, OH) to determine total hemoglobin (tHb), hematocrit (Hct), pH, pCO2, partial pressure of oxygen (pO2), and the Hb-O2 saturation (sO2) values. The measured values of pO2 and sO2 at each oxygen saturation level were then subjected to nonlinear regression analysis using the software Scientist (Micromath, Salt Lake City UT) with the following equation: […]
# Aromatic aldehydes are known to prevent hypoxia-induced Hb S polymerization by increasing the Hb affinity for oxygen. We therefore tested the PP compounds in a dose-dependent manner (0.5, 1, 2 mM) for their effect on Hb oxygen binding property. […] These findings confirmed that the potent in vitro activity previously seen in TD7 was at least conserved in the novel PP compounds.
# Target sequence in this assay (P69905 2-142 limits assumed): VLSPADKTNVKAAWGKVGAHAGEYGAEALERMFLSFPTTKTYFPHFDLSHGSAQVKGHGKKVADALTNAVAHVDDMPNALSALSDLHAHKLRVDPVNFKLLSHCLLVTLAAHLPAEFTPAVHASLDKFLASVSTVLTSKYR
# Target sequence in this assay (P68871 2-147 partner limits assumed): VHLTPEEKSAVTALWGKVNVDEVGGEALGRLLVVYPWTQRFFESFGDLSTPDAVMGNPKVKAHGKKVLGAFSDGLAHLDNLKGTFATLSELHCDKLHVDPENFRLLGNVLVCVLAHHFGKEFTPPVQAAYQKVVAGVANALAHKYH
# [6] = target: T2, Hb; assay: Time-dependent Hb-compound adduct formation (Hb modification) in normal whole blood; type: binding; parameters: Hemoglobin modification, studies using non-sickling AA blood; from tissue; host or cells: non-sickling (AA) human blood, red blood cells; conditions: 2 mM, normal adult blood, hematocrit 30%, 37° C.
# Target sequence in this assay (P69905 2-142 limits assumed): as the sequence (P69905 2-142 limits assumed) above
# Target sequence in this assay (P68871 2-147 partner limits assumed): as the sequence (P68871 2-147 partner limits assumed) above
# [7] = target: T2, Hb; assay: Drug partitioning studies, fixed and unfixed Hb adducts in non-sickling AA blood; type: cell-based; parameters: Hemoglobin modification, studies using non-sickling AA blood; from tissue; host or cells: non-sickling (AA) human blood, red blood cells; conditions: 2 mM
# Procedure, shortened: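 Non-sickling blood was incubated with test molecules and lysed either in water (unfixed) or in 50 mM sodium borohydride (fixed). Hb adducts were quantified by cation-exchange HPLC as a fraction of total Hb. The partitioning ratio is fixed over unfixed modification and reflects intracellular Hb binding after RBC membrane permeation.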
# Target sequence in this assay (P69905 2-142 limits assumed): as the sequence (P69905 2-142 limits assumed) above
# Target sequence in this assay (P68871 2-147 partner limits assumed): as the sequence (P68871 2-147 partner limits assumed) above
# [8] = target: T2, Hb; assay: Hb modification (drug-adduct formation) in SS blood suspensions by cation-exchange HPLC; type: binding; parameters: Blood suspensions from subjects with homozygous SCD; from tissue; host or cells: blood suspensions (20% hematocrit) from donors with homozygous SCD; lysates of the treated red cells; conditions: 2 mM, 4 biological replicates
# Procedure, shortened: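 Homozygous SCD blood at 20% hematocrit in Hemox buffer with glucose and BSA was incubated with compound (0-2 mM) 1 h at 37° C in air, then up to 2 h hypoxia (2.5% O2). Lysates, with or without 50 mM sodium borohydride reduction, were analysed by weak cation-exchange HPLC at A410 nm for Hb-drug adducts.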
# Target sequence in this assay (P69905 2-142): as the sequence (P69905 2-142 limits assumed) above
# Target sequence in this assay (P68871 with tags, fused parts or gaps E7V partner): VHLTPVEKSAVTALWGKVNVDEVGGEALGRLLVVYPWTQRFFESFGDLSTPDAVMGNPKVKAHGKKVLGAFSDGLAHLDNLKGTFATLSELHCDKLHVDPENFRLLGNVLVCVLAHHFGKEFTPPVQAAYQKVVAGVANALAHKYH
bioavailability [2],SMILES,polymer destabilizing effect / sickle inhibition in anoxia (in words) [1],inhibition at 500 µM ([3]; 0.5 mM) [%],inhibition at 1000 µM ([3]; 1 mM) [%],modified Hb [4] [%],effect on Hb oxygen binding property (OEC) [5],loss of Hb modification activity at 24 hours [6] [%],Fixed Adducts (%) ([7]; 6 biological replicates),Unfixed Adduct (%) ([7]; 6 biological replicates),Partitioning Ratio (%) ([7]; fixed relative to unfixed adducts),Hb Modification (%) [8] [%]
not bioavailable,"O=Cc1c(O)cccc1OCc1ccccc1 [Reference A, 2-(benzyloxy)-6-hydroxybenzaldehyde, reference compound]",exhibits potent polymer destabilizing effects,–,–,–,–,–,–,–,–,–
–,"COc1ccc(OCc2cccc(CO)n2)c(C=O)c1 [TD-7, reference compound]",–,26,47,1.5±0.3,relatively similar potency as most of the best PP compounds,45,80.9 ± 2.5,73.5 ± 1.5,103.7 ± 7.5,72.5
